Assay results reported in US20190071416A1, “COMPOUNDS FOR TREATMENT OF CANCER AND EPIGENETICS” (Agency For Science, Technology and Research, priority 2015, published 2019).
pIC50: −log10 of the molar value.

Target: T1, SMYD3 (Homo sapiens, UniProt Q9H7B4)
T1 sequence (Q9H7B4 1-428): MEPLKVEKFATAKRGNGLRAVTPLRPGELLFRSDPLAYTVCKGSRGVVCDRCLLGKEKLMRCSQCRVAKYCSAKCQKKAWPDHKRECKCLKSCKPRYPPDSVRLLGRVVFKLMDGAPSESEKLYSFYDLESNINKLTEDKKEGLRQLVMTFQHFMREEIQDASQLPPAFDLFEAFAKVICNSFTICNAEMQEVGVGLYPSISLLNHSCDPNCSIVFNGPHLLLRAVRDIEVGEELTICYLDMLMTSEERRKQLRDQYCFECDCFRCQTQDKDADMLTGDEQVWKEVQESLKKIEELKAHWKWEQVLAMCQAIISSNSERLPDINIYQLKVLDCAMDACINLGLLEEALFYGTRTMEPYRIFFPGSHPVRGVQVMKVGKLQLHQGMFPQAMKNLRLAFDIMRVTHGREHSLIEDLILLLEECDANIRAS
Experiment: SMYD3 biochemical assay (MTase-Glo, MAP3K2 peptide substrate)
Conditions: Table 3; MTase assay, MAP3K2 peptide substrate; read-out: IC50
Procedure, shortened: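 Luminescent readout of SAH production (coupled SAH→ATP conversion, MTase-Glo) after SMYD3 reacted 30 min at room temperature with 1.0 µM SAM and 10 µM MAP3K2 peptide, both final. Non-linear regression gave IC50 values.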

| pIC50 | SMILES |
| --- | --- |
| 6.22 | CCCOC(=O)N1CCN(C(=O)c2ccc3c(Cl)cc(-c4ccc(C(=O)NCC)cc4)nc3c2)CC1 [B206, Propyl 4-(4-chloro-2-(4-(ethylcarbamoyl)phenyl)quinoline-7-carbonyl)piperazine-1-carboxylate] |
| 7.00 | CCCOC(=O)N1CCN(C(=O)c2ccc3c(Cl)cc(-c4ccsc4)nc3c2)CC1 [B148, Propyl 4-(4-chloro-2-(thiophen-3-yl)quinoline-7-carbonyl)piperazine-1-carboxylate] |
| 6.80 | CCCOC(=O)N1CCN(C(=O)c2ccc3c(Cl)c4c(nc3c2)CC(CCN)CC4)CC1 (stereo not drawn) [A076, Propyl 4-(6-(2-aminoethyl)-9-chloro-5,6,7,8-tetrahydroacridine-3-carbonyl)piperazine-1-carboxylate] |
| 7.00 | CCCOC(=O)N1CCN(C(=O)c2ccc3c(Cl)c4c(nc3c2)CC(c2ccncc2)CC4)[C@H](C)C1 (stereo partly drawn) [A093, Propyl (3R)-4-(9-chloro-6-(pyridin-4-yl)-5,6,7,8-tetrahydroacridine-3-carbonyl)-3-methylpiperazine-1-carboxylate] |
| 6.48 | CCCOC(=O)N1CCN(C(=O)c2ccc3c(Cl)cc(-c4ccc5ocnc5c4)nc3c2)CC1 [B213, Propyl 4-(2-(benzo[d]oxazol-5-yl)-4-chloroquinoline-7-carbonyl)piperazine-1-carboxylate] |
| 7.02 | CCCOC(=O)N1CCN(C(=O)c2ccc3c(Cl)c4c(nc3c2)CC(c2ccccn2)CC4)[C@@H](C)C1 (stereo partly drawn) [A086, Propyl (3S)-4-(9-chloro-6-(pyridin-2-yl)-5,6,7,8-tetrahydroacridine-3-carbonyl)-3-methylpiperazine-1-carboxylate] |
| 6.60 | CCCOC(=O)N1CCN(C(=O)c2ccc3c(Cl)c4c(nc3c2)CCCC4)C(CO)C1 (stereo not drawn) [A125, Propyl 4-(9-chloro-5,6,7,8-tetrahydroacridine-3-carbonyl)-3-(hydroxymethyl)piperazine-1-carboxylate] |
| 5.17 | O=C(c1ccc2c(Cl)c3c(nc2c1)CCCC3)N1CCN(C(=O)c2cc(C3CC3)on2)CC1 [A006, (9-Chloro-5,6,7,8-tetrahydroacridin-3-yl)(4-(5-cyclopropylisoxazole-3-carbonyl)piperazin-1-yl)methanone] |
| 6.00 | CCCOC(=O)N1CCN(C(=O)c2ccc3c(Cl)c(C)c(-c4cccc(C(N)=O)c4)nc3c2)CC1 [B035, Propyl 4-(2-(3-carbamoylphenyl)-4-chloro-3-methylquinoline-7-carbonyl)piperazine-1-carboxylate] |
| 6.80 | CCCOC(=O)N1CCN(C(=O)c2ccc3c(Cl)c(C)c(-c4ccccc4)nc3c2)C[C@@H]1C [B006, Propyl (S)-4-(4-chloro-3-methyl-2-phenylquinoline-7-carbonyl)-2-methylpiperazine-1-carboxylate] |
| 7.80 | CCCOC(=O)N1CCN(C(=O)c2ccc3c(Cl)cc(-c4ccc(C(C)(C)O)cc4)nc3c2)C[C@@H]1C [B270, Propyl (S)-4-(4-chloro-2-(4-(2-hydroxypropan-2-yl)phenyl)quinoline-7-carbonyl)-2-methylpiperazine-1-carboxylate] |
| 6.77 | CCCOC(=O)N1CC2CCCC1CN2C(=O)c1ccc2c(Cl)c3c(nc2c1)CCCC3 (stereo not drawn) [A080, Propyl 8-(9-chloro-5,6,7,8-tetrahydroacridine-3-carbonyl)-6,8-diazabicyclo[3.2.2]nonane-6-carboxylate] |
| 6.85 | CCCOC(=O)N1CCN(C(=O)c2ccc3c(Cl)c4c(nc3c2)CC(CCNC(=N)N)CC4)[C@@H](C)C1 (stereo partly drawn) [A091, Propyl (3S)-4-(9-chloro-6-(2-guanidinoethyl)-5,6,7,8-tetrahydroacridine-3-carbonyl)-3-methylpiperazine-1-carboxylate] |
| 6.89 | CCCOC(=O)N1CCN(C(=O)c2ccc3c(Cl)cc(-c4ccn(C)c4)nc3c2)[C@@H](C)C1 [B194, Propyl (S)-4-(4-chloro-2-(1-methyl-1H-pyrrol-3-yl)quinoline-7-carbonyl)-3-methylpiperazine-1-carboxylate] |
| 6.70 | O=C(c1ccc2c(Cl)cc(-c3ccccc3)nc2c1)N1CCN(C(=O)c2cnn(C3CC3)c2)CC1 [D011, (4-Chloro-2-phenylquinolin-7-yl)(4-(1-cyclopropyl-1H-pyrazole-4-carbonyl)piperazin-1-yl)nethanone] |
| 6.77 | CCCOC(=O)N1CCN(C(=O)c2ccc3c(Cl)cc(-c4ccc(C(C)(C)O)c(F)c4)nc3c2)C[C@H]1C [B269, Propyl (R)-4-(4-chloro-2-(3-fluoro-4-(2-hydroxypropan-2-yl)phenyl)quinoline-7-carbonyl)-2-methylpiperazine-1-carboxylate] |
| 7.33 | CCCOC(=O)N1CCN(C(=O)c2ccc3c(Cl)c4c(nc3c2)CC(CCN)CC4)[C@H](C)C1 (stereo partly drawn) [A111, Propyl (3R)-4-(6-(2-aminoethyl)-9-chloro-5,6,7,8-tetrahydroacridine-3-carbonyl)-3-methylpiperazine-1-carboxylate] |

| pIC50 | SMILES |
| --- | --- |
| 6.06 | CCCOC(=O)N1CCN(C(=O)c2ccc3c(Cl)cc(-c4cccc(N(C)C)c4)nc3c2)C[C@H]1C [B061, Propyl (R)-4-(4-chloro-2-(3-(dimethylamino)phenyl)quinoline-7-carbonyl)-2-methylpiperazine-1-carboxylate] |
| 7.25 | CCCOC(=O)N1CCN(C(=O)c2ccc3c(Cl)cc(-c4ccc5cn(C)nc5c4)nc3c2)CC1 [B196, Propyl 4-(4-chloro-2-(2-methyl-2H-indazol-6-yl)quinoline-7-carbonyl)piperazine-1-carboxylate] |
| 6.46 | CCCOC(=O)N1CCN(C(=O)c2ccc3c(Cl)cc(-c4ccc(N(C)C)cc4)nc3c2)CC1 [B055, Propyl 4-(4-chloro-2-(4-(dimethylamino)phenyl)quinoline-7-carbonyl)piperazine-1-carboxylate] |
| 6.89 | CCCOC(=O)N1CCN(C(=O)c2ccc3c(Cl)cc(-c4ccc(C(=O)NC)cc4)nc3c2)[C@@H](C)C1 [B190, Propyl (S)-4-(4-chloro-2-(4-(methylcarbamoyl)phenyl)quinoline-7-carbonyl)-3-methylpiperazine-1-carboxylate] |
| 6.44 | CCCOC(=O)N1CCN(C(=O)c2ccc3c(Cl)cc(-c4ccc5nn[nH]c5c4)nc3c2)CC1 [B164, Propyl 4-(2-(1H-benzo[d][1,2,3]triazol-6-yl)-4-chloroquinoline-7-carbonyl)piperazine-1-carboxylate] |
| 6.82 | CCCOC(=O)N1CCN(C(=O)c2ccc3c(Cl)c4c(nc3c2)CC(c2ccccn2)CC4)C[C@@H]1C (stereo partly drawn) [A073, Propyl (2S)-4-(9-chloro-6-(pyridin-2-yl)-5,6,7,8-tetrahydroacridine-3-carbonyl)-2-methylpiperazine-1-carboxylate] |
| 6.82 | CCCOC(=O)N1CCN(C(=O)c2ccc3c(Cl)cc(-c4ccc(O)cc4)nc3c2)[C@@H](C)C1 [B160, Propyl (S)-4-(4-chloro-2-(4-hydroxyphenyl)quinoline-7-carbonyl)-3-methylpiperazine-1-carboxylate] |
| 6.25 | CCCOC(=O)N1CCN(C(=O)c2ccc3c(Cl)cc(-c4ccc(OC)c(C#N)c4)nc3c2)C[C@H]1C [B106, Propyl (R)-4-(4-chloro-2-(3-cyano-4-methoxyphenyl)quinoline-7-carbonyl)-2-methylpiperazine-1-carboxylate] |
| 7.66 | CCCOC(=O)N1CCN(C(=O)c2ccc3c(Cl)cc(-c4cnn(CC(F)(F)F)c4)nc3c2)C[C@@H]1C [B276, Propyl (S)-4-(4-chloro-2-(1-(2,2,2-trifluoroethyl)-1H-pyrazol-4-yl)quinoline-7-carbonyl)-2-methylpiperazine-1-carboxylate] |
| 7.05 | CCCOC(=O)N1CCN(C(=O)c2ccc3c(Cl)cc(-c4ccc(N)cc4)nc3c2)CC1 [B073, Propyl 4-(2-(4-aminophenyl)-4-chloroquinoline-7-carbonyl)piperazine-1-carboxylate] |
| 6.82 | CCCOC(=O)N1CCN(C(=O)c2ccc3c(Cl)cc(-c4ccc(OC)c(CO)c4)nc3c2)C[C@@H]1C [B171, Propyl (S)-4-(4-chloro-2-(3-(hydroxymethyl)-4-methoxyphenyl)quinoline-7-carbonyl)-2-methylpiperazine-1-carboxylate] |
| 7.47 | CCCOC(=O)N1CCN(C(=O)c2ccc3c(Cl)cc(-c4cnn(CC(F)(F)F)c4)nc3c2)C[C@H]1C [B275, Propyl (R)-4-(4-chloro-2-(1-(2,2,2-trifluoroethyl)-1H-pyrazol-4-yl)quinoline-7-carbonyl)-2-methylpiperazine-1-carboxylate] |
| 6.85 | CCCOC(=O)N1CCN(C(=O)c2ccc3c(Cl)cc(-c4ccc(C(C)(C)O)cc4)nc3c2)CC1 [B244, Propyl 4-(4-chloro-2-(4-(2-hydroxypropan-2-yl)phenyl)quinoline-7-carbonyl)piperazine-1-carboxylate] |
| 6.66 | CCCOC(=O)N1CCN(C(=O)c2ccc3c(Cl)c4c(nc3c2)CC(c2ccnc(C(N)=O)c2)CC4)[C@@H](C)C1 (stereo partly drawn) [A145, Propyl (3S)-4-(6-(2-carbamoylpyridin-4-yl)-9-chloro-5,6,7,8-tetrahydroacridine-3-carbonyl)-3-methylpiperazine-1-carboxylate] |
| 5.54 | CCCOC(=O)N1CCN(C(=O)c2ccc3c(Cl)cc(-c4ccccc4C)nc3c2)CC1 [B012, Propyl 4-(4-chloro-2-(o-tolyl)quinoline-7-carbonyl)piperazine-1-carboxylate] |
| 5.62 | CCCOC(=O)N1CCN(C(=O)c2ccc3c(Cl)cc(-c4cccnc4)nc3c2)CC1 [B001, Propyl 4-(4-chloro-2-(pyridin-3-yl)quinoline-7-carbonyl)piperazine-1-carboxylate] |
